Measurements reported in ChEMBL document CHEMBL5230097, “Structure-based design of covalent inhibitors targeting metallo-β-lactamases” (Eur J Med Chem, 2020).

What was measured:
[1] = Inhibition of metallo-beta-lactamase ImiS (unknown origin) expressed in Escherichia coli BL21 (DE3) assessed as substrate hydrolysis using imipenem as substrate by spectrometric analysis; design: species or system Bacteria
[2] = Inhibition of Metallo-beta-lactamase NDM-1 (unknown origin) expressed in Escherichia coli BL21 (DE3) assessed as substrate hydrolysis using imipenem as substrate by spectrometric analysis; design: species or system Bacteria
[3] = Inhibition of metallo-beta-lactamase IMP-1 (unknown origin) expressed in Escherichia coli BL21 (DE3) assessed as substrate hydrolysis using imipenem as substrate by spectrometric analysis; design: species or system Bacteria
[4] = Inhibition of wild type metallo-beta-lactamase IMP-1 (unknown origin) assessed as inhibition constant using nitrocefin as substrate preincubated with compound followed by substrate addition and measured for 60 sec by spectroscopic analysis; design: species or system Bacteria
[5] = Inhibition of Metallo-beta-lactamase NDM-1 in Escherichia coli BL21 assessed as inhibition constant using nitrocefin as substrate preincubated for 20 mins followed by substrate and measured after 30 mins by spectrophotometric analysis
[6] = Inhibition of Bacillus cereus II metallo-beta-lactamase using nitrocefin as substrate incubated for 5 mins by spectrophotometric analysis
[7] = Inhibition of Escherichia coli metallo-beta-lactamase NDM-1 assessed as substrate hydrolysis using cefazolin as substrate preincubated for 12 hrs followed by substrate by UV-Vis spectrophotometric analysis
[8] = Inhibition of Metallo-beta-lactamase NDM-1 in Escherichia coli BL21 (DE3) assessed as substrate hydrolysis using cefazolin as substrate preincubated for 20 hrs followed by substrate by spectrometric analysis

IC50 [1] [nM] | IC50 [2] [nM] | IC50 [3] [nM] | SMILES | further results
1800 | 260 | 530 | CCCCN(CCCC)C(=S)SSC(=S)N(CCCC)CCCC | –
3700 | 120 | 950 | S=C(SSC(=S)N1CCCC1)N1CCCC1 [BIS(PYRROLIDINYLTHIOCARBONYL)DISULFIDE] | –
– | – | – | O=C(CCSC(=O)CCS)Oc1c(F)c(F)c(F)c(F)c1F | Ki [4]: 420 nM
– | – | – | O=c1c2ccccc2[se]n1-c1ccccc1 [EBSELEN] | Ki [5]: 380 nM
– | – | – | O=C(CCS)Oc1c(F)c(F)c(F)c(F)c1F | Ki [4]: 3450 nM
3600 | 130 | 2900 | CCN(CC)C(=S)SSC(=S)N(CC)CC [DISULFIRAM] | –
– | – | – | C[C@@H](NC(=O)c1ccccc1)C(=O)SCC(=O)O | IC50 [6]: 645000 nM
– | – | – | C[C@@H](NC(=O)Cc1ccccc1)C(=O)SCC(=O)O | IC50 [6]: 479000 nM
– | – | – | O=C(O)C(=O)CBr [BROMOPYRUVATE] | IC50 [7]: 2570 nM
– | – | – | O=c1c2ccccc2sn1-c1ccccc1 | IC50 [8]: 160 nM

SMILES | IC50 [1] [nM] | IC50 [2] [nM] | IC50 [3] [nM] | further results
S=C(SSC(=S)N(Cc1ccccc1)Cc1ccccc1)N(Cc1ccccc1)Cc1ccccc1 [BIS(DIBENZYLAMINETHIOCARBONYL)DISULFIDE] | 2600 | 320 | 1700 | –
S=C(SSC(=S)N1CCCCC1)N1CCCCC1 [BIS(PIPERIDINYLTHIOCARBONYL)DISULFIDE] | 490 | 140 | 880 | –
